The source made the active and inactive calls. No cut-off for these calls is given here.

Inhibition and IC50 data for six molecules are collected here from ChEMBL document CHEMBL4130426, “Namalides B and C and Spumigins K-N from the Cultured Freshwater Cyanobacterium Sphaerospermopsis torques-reginae” (J Nat Prod, 2017).

For assay [1], the target named is T1, Prothrombin (Homo sapiens, UniProt P00734). The assay is described as follows: Inhibition of thrombin (unknown origin) up to 150 to 350 uM using N-benzoyl-Phe-Val-Arg-p-nitroanilide hydrochloride as substrate pretreated for 5 mins followed by substrate addition measured after 30 mins by colorimetric method.
For assay [2], the target named is T1, Prothrombin. Put plainly: Inhibition of thrombin (unknown origin) using N-benzoyl-Phe-Val-Arg-p-nitroanilide hydrochloride as substrate pretreated for 5 mins followed by substrate addition measured after 30 mins by colorimetric method.
Assay [3] addresses T2, Chymotrypsin-C (Homo sapiens) (UniProt Q99895).
T2 sequence (whole entry): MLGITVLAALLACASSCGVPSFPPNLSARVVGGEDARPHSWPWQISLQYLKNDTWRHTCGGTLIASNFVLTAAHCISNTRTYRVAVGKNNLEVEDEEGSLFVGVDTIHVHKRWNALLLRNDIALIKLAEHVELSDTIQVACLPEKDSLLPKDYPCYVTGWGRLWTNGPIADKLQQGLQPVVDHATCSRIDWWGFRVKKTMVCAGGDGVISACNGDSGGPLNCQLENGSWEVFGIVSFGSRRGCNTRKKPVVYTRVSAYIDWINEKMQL
Put plainly: Inhibition of human pancreas chymotrypsin C up to 0.78 mM using N-succinyl-Ala-Ala-Pro-Phe p-nitroanilide as substrate pretreated for 5 mins followed by substrate addition measured after 30 mins by colorimetric method.

A further assay deals with T3, Carboxypeptidase A1 (Bos taurus, UniProt P00730).
T3 sequence (P00730 whole entry): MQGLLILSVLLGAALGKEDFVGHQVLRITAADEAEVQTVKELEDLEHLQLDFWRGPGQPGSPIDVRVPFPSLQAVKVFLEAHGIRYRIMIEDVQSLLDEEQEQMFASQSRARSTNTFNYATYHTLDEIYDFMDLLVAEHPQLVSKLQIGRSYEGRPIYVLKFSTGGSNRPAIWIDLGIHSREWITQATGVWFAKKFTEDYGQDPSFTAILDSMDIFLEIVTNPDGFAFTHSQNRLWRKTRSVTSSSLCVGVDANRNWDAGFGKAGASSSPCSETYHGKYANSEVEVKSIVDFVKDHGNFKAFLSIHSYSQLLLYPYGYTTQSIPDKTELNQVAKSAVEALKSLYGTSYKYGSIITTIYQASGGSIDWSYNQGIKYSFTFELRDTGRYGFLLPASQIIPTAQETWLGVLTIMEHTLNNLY
Put plainly: Inhibition of bovine pancreas carboxypeptidase A using N-4-(methoxyphenylazoformyl)-Phe-OH as substrate measured after 5 mins by colorimetric method.

As for `CC1C[C@@H](C(=O)N[C@H](CO)CCCNC(=N)N)N(C(=O)[C@@H](Cc2ccc(O)cc2)NC(=O)C(O)CCc2ccc(O)cc2)C1` (stereo partly drawn), the inhibition entry on Prothrombin [1] was “inactive”.

With `N=C(N)NCCC[C@H](CO)NC(=O)[C@@H]1CCCN1C(=O)[C@@H](Cc1ccc(O)cc1)NC(=O)C(O)CCc1ccc(O)cc1` (stereo partly drawn), the IC50 on Prothrombin [2] was 250 µM.

Consider `CC[C@@H](C)[C@H](NC(=O)N[C@@H]1CCCCNC(=O)[C@H](CCc2ccc(O)cc2)NC(=O)[C@H]([C@H](C)CC)NC1=O)C(=O)O`, for which, in assay [3], the inhibition entry is “inactive”. On Carboxypeptidase A1, the 50% inhibitory concentration (IC50) came to 0.75 µM.

In the case of `N=C(N)NCCC[C@@H](CO)NC(=O)[C@@H]1CCCN1C(=O)[C@@H](Cc1ccc(O)cc1)NC(=O)C(O)CCc1ccc(O)cc1` (stereo partly drawn), the IC50 at Prothrombin [2] was 250 µM.

On to `CC[C@@H](C)[C@H](NC(=O)N[C@@H]1CCCCNC(=O)[C@H](CCc2ccc(O)cc2)NC(=O)[C@H](C(C)C)NC1=O)C(=O)O`, for which, in assay [3], the inhibition entry was “inactive”. On Carboxypeptidase A1, this molecule yielded an IC50 of 2 µM.

As for `CC1C[C@@H](C(=O)N[C@@H](CO)CCCNC(=N)N)N(C(=O)[C@@H](Cc2ccc(O)cc2)NC(=O)C(O)CCc2ccc(O)cc2)C1` (stereo partly drawn), the inhibition result on Prothrombin [1] was “inactive”.
